The text below walks through data of ChEMBL document CHEMBL1143114, “Preparation and affinity profile of novel nicotinic ligands” (Bioorg Med Chem Lett, 2008).

Calls of active or inactive are those of the source. The rule behind the calls is not given here. Bounds are passed on as bounds.

Chain of Neuronal acetylcholine receptor subunit alpha-7 (Q05941 whole entry): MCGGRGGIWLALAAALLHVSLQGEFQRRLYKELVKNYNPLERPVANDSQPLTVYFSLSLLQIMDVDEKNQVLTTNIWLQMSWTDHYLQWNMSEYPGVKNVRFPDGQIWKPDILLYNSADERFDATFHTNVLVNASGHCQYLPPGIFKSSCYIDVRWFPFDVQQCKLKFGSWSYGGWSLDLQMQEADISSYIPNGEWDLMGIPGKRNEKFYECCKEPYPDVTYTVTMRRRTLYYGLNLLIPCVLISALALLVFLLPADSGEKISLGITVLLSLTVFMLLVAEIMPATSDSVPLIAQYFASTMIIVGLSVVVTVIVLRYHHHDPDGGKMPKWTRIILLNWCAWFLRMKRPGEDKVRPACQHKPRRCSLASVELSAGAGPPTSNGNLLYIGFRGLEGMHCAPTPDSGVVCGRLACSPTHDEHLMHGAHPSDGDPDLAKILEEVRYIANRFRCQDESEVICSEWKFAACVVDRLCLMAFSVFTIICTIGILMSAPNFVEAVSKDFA
Chain of Neuronal acetylcholine receptor; alpha4/beta2 (P09483 whole entry): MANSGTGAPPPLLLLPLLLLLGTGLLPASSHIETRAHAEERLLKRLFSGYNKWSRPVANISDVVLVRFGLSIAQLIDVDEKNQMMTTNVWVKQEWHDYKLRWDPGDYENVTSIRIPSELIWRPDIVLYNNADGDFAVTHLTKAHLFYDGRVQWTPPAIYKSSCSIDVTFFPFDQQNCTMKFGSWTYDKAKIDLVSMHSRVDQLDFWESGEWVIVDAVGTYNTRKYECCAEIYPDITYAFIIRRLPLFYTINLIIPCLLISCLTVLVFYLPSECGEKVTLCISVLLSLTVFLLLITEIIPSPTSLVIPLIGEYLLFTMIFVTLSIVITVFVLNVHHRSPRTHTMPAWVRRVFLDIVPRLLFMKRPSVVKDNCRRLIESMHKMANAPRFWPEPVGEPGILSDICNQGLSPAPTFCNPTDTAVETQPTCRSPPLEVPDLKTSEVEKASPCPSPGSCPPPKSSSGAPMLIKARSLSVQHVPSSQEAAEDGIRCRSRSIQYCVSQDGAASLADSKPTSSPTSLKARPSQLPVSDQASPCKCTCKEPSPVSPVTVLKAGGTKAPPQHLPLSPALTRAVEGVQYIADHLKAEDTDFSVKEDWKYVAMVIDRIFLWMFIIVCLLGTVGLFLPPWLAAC
Chain of Neuronal acetylcholine receptor; alpha4/beta2 (P12390 whole entry): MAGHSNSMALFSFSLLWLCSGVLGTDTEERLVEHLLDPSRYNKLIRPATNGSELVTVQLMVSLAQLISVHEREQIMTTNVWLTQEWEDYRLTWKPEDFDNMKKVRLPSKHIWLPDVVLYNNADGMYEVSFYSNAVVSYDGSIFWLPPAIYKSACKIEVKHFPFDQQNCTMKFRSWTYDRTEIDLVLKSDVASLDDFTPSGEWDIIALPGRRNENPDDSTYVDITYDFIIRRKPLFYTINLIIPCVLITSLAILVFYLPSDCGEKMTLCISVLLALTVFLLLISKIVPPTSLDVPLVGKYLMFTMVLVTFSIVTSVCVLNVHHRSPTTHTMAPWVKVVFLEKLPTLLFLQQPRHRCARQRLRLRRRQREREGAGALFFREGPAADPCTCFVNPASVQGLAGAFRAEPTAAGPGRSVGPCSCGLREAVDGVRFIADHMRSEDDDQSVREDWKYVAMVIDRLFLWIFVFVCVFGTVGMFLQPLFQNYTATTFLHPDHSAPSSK

The first assay has as its target Neuronal acetylcholine receptor; alpha4/beta2 (Rattus norvegicus, UniProt P09483+P12390). In words: Displacement of [3H]cystisine from nicotinic alpha-4-beta-2 receptor in rat brain. It is filed as tissue-based. (In general: Displacement assays read how much labelled ligand stays bound in the presence of the test substance.)
A word on the Ki: it is the dissociation constant of the complex between target and ligand, obtained from inhibition or displacement. As for `Cc1ccc(OCC2(N)CC2)cn1`, the inhibition constant Ki amounted to 0.266 µM. This counts as sub-micromolar.

Consider `c1cncc(OCC2(N3CCCC3)CC2)c1`, for which the affinity, expressed as Ki, was 1.61 µM. This Ki is about 6.1-fold higher than that of the compound before.

For the compound `CN(C)C1(COc2cccnc2)CC1.Cl`, the affinity, expressed as Ki, was 0.095 µM.

As for `CNC1(CCCOc2cccnc2)CC1.O=C(O)/C=C/C(=O)O`, the affinity, expressed as Ki, was 2.46 µM.

On to `CNC1(COc2cccnc2)CC1.Cl`, for which the affinity, expressed as Ki, was 0.003 µM.

For the compound `CN(C)C1(COc2cnc(Cl)c(Br)c2)CC1`, the affinity corresponds to a Ki of 0.11 µM.

For `CNC1(COc2cncc(Br)c2)CC1.Cl`, affinity was put at a Ki of 0.00107 µM.

In turn, `Cl.NC1(COc2cccnc2)CC1` registered a Ki of 0.034 µM.

On to `CNC1(/C=C/c2cccnc2)CC1.O=C(O)/C=C/C(=O)O`, for which the affinity, expressed as Ki, was 1.16 µM.

The compound `CNC1(COc2ccc(C)nc2)CC1.Cl` had a Ki of 0.04 µM.

With `CNC1(/C=C\COc2cccnc2)CC1.Cl`, affinity was put at a Ki of 2.28 µM.

Consider `CN(C)C1(COc2ccc(Cl)nc2)CC1`, for which the Ki stood at 0.304 µM.

For `CNC1(/C=C/COc2cccnc2)CC1.Cl`, the affinity, expressed as Ki, was 1.1 µM.

The compound `CN(C)C1(COc2ccc(Br)nc2)CC1` gave an inhibition constant Ki of 0.394 µM.

`Cc1ccc(OCC2(N(C)C)CC2)cn1` had a Ki of 1.09 µM.

With `CN(C)C1(COc2cncc(Br)c2)CC1`, the affinity, expressed as Ki, was 0.273 µM. This Ki lies about 4-fold lower than the previous one.

In turn, `CCNC1(COc2cccnc2)CC1` returned a Ki of 1.01 µM.

Take `CNC1(COc2ccc(Br)nc2)CC1.Cl`: the affinity corresponds to a Ki of 0.0388 µM. This Ki lies about 26-fold lower than the previous one.

`CNC1(COc2cnc(Cl)c(Br)c2)CC1.Cl`: the Ki was 0.00537 µM.

`CNC1(CCc2cccnc2)CC1.Cl` had a Ki of 0.251 µM.

In turn, `CNC1(COc2ccc(Cl)nc2)CC1.Cl` came in with an inhibitory constant (Ki) of 0.013 µM.

In turn, `CNC1(CCOc2cccnc2)CC1.O=C(O)/C=C/C(=O)O` displayed a Ki of 0.109 µM.

As for `NC1(COc2ccc(Cl)nc2)CC1`, the inhibition constant (Ki) was found to be 0.098 µM.

For `C=Cc1cncc(OCC2(NC)CC2)c1.Cl`, affinity was put at a Ki of 0.0701 µM. The Ki values of the last two compounds are within 1.5-fold of each other.

On to `C#Cc1cncc(OCC2(NC)CC2)c1.Cl`, for which the affinity, expressed as Ki, was 0.00656 µM. Compared with the last compound, the Ki is about 11-fold lower.

Another assay has as its target Neuronal acetylcholine receptor subunit alpha-7 (Rattus norvegicus, UniProt Q05941). The assay is described as follows: Displacement of [3H]alpha-bungaro-toxine from nicotinic alpha-7 receptor in rat brain. It is filed as tissue-based.
With `c1cncc(OCC2(N3CCCC3)CC2)c1`, the Ki was more than 10 µM.

Regarding `CN(C)C1(COc2cccnc2)CC1.Cl`, the Ki was more than 10 µM.

`CNC1(CCCOc2cccnc2)CC1.O=C(O)/C=C/C(=O)O` gave an inhibition constant (Ki) of more than 10 µM.

As for `CNC1(COc2cccnc2)CC1.Cl`, the inhibition constant Ki was more than 10 µM.

On to `CNC1(COc2cncc(Br)c2)CC1.Cl`, for which the inhibition constant Ki was more than 10 µM.

For the compound `Cl.NC1(COc2cccnc2)CC1`, the Ki was more than 10 µM.

Take `CNC1(/C=C/c2cccnc2)CC1.O=C(O)/C=C/C(=O)O`: the inhibitory constant (Ki) was 3.46 µM.

On to `CNC1(COc2ccc(C)nc2)CC1.Cl`, for which the Ki is more than 10 µM.

With `CNC1(/C=C\COc2cccnc2)CC1.Cl`, the Ki is more than 10 µM.

The compound `CNC1(/C=C/COc2cccnc2)CC1.Cl` displayed an inhibition constant (Ki) of more than 10 µM.

In turn, `CCNC1(COc2cccnc2)CC1` had a Ki of more than 10 µM.

On to `CNC1(COc2ccc(Br)nc2)CC1.Cl`, for which the inhibitory constant (Ki) is more than 10 µM.

As for `CNC1(COc2cnc(Cl)c(Br)c2)CC1.Cl`, the Ki was more than 10 µM.

Regarding `CNC1(CCc2cccnc2)CC1.Cl`, affinity was put at a Ki of 1.91 µM. This lies in the single-digit micromolar range.

Take `CNC1(COc2ccc(Cl)nc2)CC1.Cl`: the Ki is more than 10 µM.

As for `CNC1(CCOc2cccnc2)CC1.O=C(O)/C=C/C(=O)O`, the inhibition constant Ki is more than 10 µM.

Compound `C=Cc1cncc(OCC2(NC)CC2)c1.Cl` showed an inhibition constant (Ki) of more than 10 µM.

Compound `C#Cc1cncc(OCC2(NC)CC2)c1.Cl` showed an inhibitory constant (Ki) of more than 10 µM.

A further assay concerns the target Muscarinic acetylcholine receptor. In words: Displacement of [3H]oxotremorine from muscarinic receptor in rat brain. It is filed as tissue-based.
For `c1cncc(OCC2(N3CCCC3)CC2)c1`, the inhibitory constant (Ki) was more than 10 µM.

Consider `CN(C)C1(COc2cccnc2)CC1.Cl`, for which the Ki was more than 10 µM.

Compound `CNC1(CCCOc2cccnc2)CC1.O=C(O)/C=C/C(=O)O` gave a Ki of more than 10 µM.

`CNC1(COc2cccnc2)CC1.Cl` yielded an inhibitory constant (Ki) of more than 10 µM.

As for `CNC1(COc2cncc(Br)c2)CC1.Cl`, the inhibition constant Ki was more than 10 µM.

The compound `Cl.NC1(COc2cccnc2)CC1` yielded a Ki of more than 10 µM.

As to `CNC1(/C=C/c2cccnc2)CC1.O=C(O)/C=C/C(=O)O`, the inhibition constant (Ki) was more than 10 µM.

Take `CNC1(COc2ccc(C)nc2)CC1.Cl`: the Ki is more than 10 µM.

`CNC1(/C=C\COc2cccnc2)CC1.Cl` returned a Ki of more than 10 µM.

Consider `CNC1(/C=C/COc2cccnc2)CC1.Cl`, for which the inhibitory constant (Ki) was more than 10 µM.

Turning to `CCNC1(COc2cccnc2)CC1`, the Ki was more than 10 µM.

On to `CNC1(COc2ccc(Br)nc2)CC1.Cl`, for which the Ki is more than 10 µM.

Regarding `CNC1(COc2cnc(Cl)c(Br)c2)CC1.Cl`, the Ki was more than 10 µM.

Compound `CNC1(CCc2cccnc2)CC1.Cl` gave a Ki of more than 10 µM.

Compound `CNC1(COc2ccc(Cl)nc2)CC1.Cl` returned an inhibitory constant (Ki) of more than 10 µM.

`CNC1(CCOc2cccnc2)CC1.O=C(O)/C=C/C(=O)O` registered an inhibition constant (Ki) of more than 10 µM.

For `C=Cc1cncc(OCC2(NC)CC2)c1.Cl`, the Ki was more than 10 µM.

`C#Cc1cncc(OCC2(NC)CC2)c1.Cl`: the Ki was more than 10 µM.

For another assay, the species on record is Rattus norvegicus. In words: Increase in cortical acetyl choline levels in rat by microdialysis. It is filed as functional, organism-based.
Turning to `CNC1(COc2cccnc2)CC1.Cl`, the Activity result is “Dose-dependent effect”.

For a further assay, the species on record is Rattus norvegicus. In words: Effect on memory in Wistar rat by social recognition test. It is filed as functional, organism-based.
For `CNC1(COc2cccnc2)CC1.Cl`, the result was Active.
